Reference: patent US20230295201A1 (Gilead Sciences, Inc., priority 2020, published 2023)
Read-outs that look alike come from different tables or passages of the source.

Legend:
Format in all cases: cell-based
RSV strain A2 = experiment: RSV HEp-2 EC50 (infectious cytopathic cell protection assay); conditions: read-out: RSV HEp-2 EC50
Method in brief: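 HEp-2 cells mixed with titered RSV A2 at 50,000 cells/ml were added to plates holding 3-fold serial compound dilutions in DMSO, then incubated 4 days at 37° C. Cytoprotection was read as cell viability by CellTiter-Glo luminescence and converted to percent inhibition against 0% and 100% inhibition controls.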

DENV2 replicon = experiment: DENV-2 Huh-7 Rep EC50 (replicon luminescence); conditions: Dengue virus, DENV2, Huh-7, 48 h, read-out: DENV-2 Huh-7 Rep EC50
Method in brief: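 Huh-7 cells carrying a DENV2 replicon, 5,000 cells/well, were incubated with dosed compounds for 48 h at 37° C. EnduRen live-cell substrate was added 1.5 h before luminescence reading. EC50 came from dose-response against DMSO-only wells.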

[1] = tested on: Dengue serotype 2 New Guinea C (NGC) strain; experiment: DENV-2 Huh-7 EC50 (qPCR in Huh7 cells); conditions: Dengue virus, DENV2, Huh-7, 48 h
Description: Huh7 (Human hepatocarcinoma 7) cells were maintained in 10% FCS-containing DMEM complete media. On the day of the assay, cells were trypsinized (0.1% Trypsin-EDTA), washed and infected for 2 hours in serum-free DMEM with Dengue serotype 2 New Guinea C (NGC) strain at MOI=0.1 with gentle agitation at 37° C. After 2 hours, cells were washed with serum-free media and suspended in 10% FCS-containing DMEM (Gibco, supplemented with sodium pyruvate, NEAA, Penicillin-Streptomycin). 10^5 cells were plated in triplicate in 96-well plates with compounds dispensed at graded doses (Hewlett-Packard D300 Digital Dispenser). All wells were normalized to 0.25% DMSO. At 48 hours, cells were washed with 1×PBS and all supernatants removed. Total RNA was extracted using RNEasy 96 plates (Qiagen) and used to generate first-strand cDNA using XLT cDNA 5×Supermix (QuantaBio). cDNA was used as a template in a Taqman qPCR duplex reaction specific to DENV2 viral and GAPDH gene expression. EC50 values were determined using Prism Graphpad software, with normalization to a positive control and no compound negative control wells.

RSV A2 = experiment: RSV NHBE EC50 (RSV A2 antiviral assay in normal human bronchial epithelial cells); conditions: human respiratory syncytial virus, NHBE, 96 h, read-out: RSV NHBE EC50
HRV16 = HRV16 HELA EC50 (cytopathic effect in H1-HeLa cells); conditions: 96 h, read-out: HRV16 HELA EC50
Method in brief: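 H1-HeLa cells seeded one day before, given 3-fold serial compound dilutions in triplicate just prior to infection with pre-titrated virus. Incubated 96 h at 33 °C/5% CO2; protection from cytopathic effect read as viability by CellTiter-Glo luminescence, normalised to infected untreated (0%) and uninfected (100%) controls.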

[2] = human respiratory syncytial virus, HEp-2, 96 h, HEp-2 cells, RSV A2, 4 days

Structure (SMILES): CCOC(=O)[C@H](C)NP(=O)(OC[C@@]1(C#N)O[C@@H](c2ccc3c(N)ncnn23)[C@H](O)[C@@H]1O)Oc1ccc(C(C)(C)C)cc1 (mixture of isomers) [Example 263, Ethyl ((((2R,3S,4R,5S)-5-(4-aminopyrrolo[2,1-f][1,2,4]triazin-7-yl)-2-cyano-3,4-dihydroxytetrahydrofuran-2-yl)methoxy)(4-(tert-butyl)phenoxy)phosphoryl)-L-alaninate]
- EC50 (RSV strain A2; [2]): 35 nM
- EC50 (DENV2 replicon; Huh-7 replicon cells, 48 hours): 8030 nM
- EC50 [1]: 569 nM

Structure (SMILES): C[C@H](NP(=O)(OC[C@@]1(C#N)O[C@@H](c2ccc3c(N)ncnn23)[C@H](O)[C@@H]1O)Oc1ccccc1)C(=O)OC1CCCCCC1 (single isomer, unassigned) [Example 135]
- EC50 (RSV strain A2; HEp-2 cells, RSV A2, 4 days): 233 nM
- EC50 (RSV A2; NHBE cells, RSV A2, 4 days): 66 nM
- EC50 [1]: 1390 nM

Structure (SMILES): CCOC(=O)[C@H](C)NP(=O)(OC[C@@]1(C#N)O[C@@H](c2ccc3c(N)ncnn23)[C@H](O)[C@@H]1O)Oc1ccc(C(C)(C)C)cc1 (single isomer, unassigned) [Example 265]
- EC50 (RSV strain A2; HEp-2 cells, RSV A2, 4 days): 215 nM
- EC50 [1]: 390 nM

Structure (SMILES): CC(C)OC(=O)[C@H](C)N[P@](=O)(OC[C@@]1(C#N)O[C@@H](c2ccc3c(N)ncnn23)[C@@H]2OC(=O)O[C@@H]21)Oc1ccccc1 [Example 236, isopropyl ((S)-(((3aS,4R,6S,6aS)-6-(4-aminopyrrolo[2,1-f][1,2,4]triazin-7-yl)-4-cyano-2-oxotetrahydrofuro[3,4-d][1,3]dioxol-4-yl)methoxy) (phenoxy)phosphoryl)-L-alaninate]
- EC50 (RSV strain A2; [2]): 189 nM
- EC50 (RSV A2; NHBE cells, RSV A2, 4 days): 949 nM
- EC50 (HRV16; H1-HeLa cells, 33° C.): 741 nM
- EC50 (DENV2 replicon; Huh-7 replicon cells, 48 hours): 17900 nM

Structure (SMILES): CC(C)[C@H](N)C(=O)Nc1ncnn2c([C@@H]3O[C@](C#N)(CO[P@@](=O)(N[C@@H](C)C(=O)OC4CCCCC4)Oc4ccccc4)[C@@H](O)[C@H]3O)ccc12 [Example 237, cyclohexyl ((S)-(((2R,3S,4R,5S)-5-(4-((S)-2-amino-3-methylbutanamido)pyrrolo[2,1-f][1,2,4]triazin-7-yl)-2-cyano-3,4-dihydroxytetrahydrofuran-2-yl)methoxy)(phenoxy)phosphoryl)-L-alaninate]
- EC50 (RSV strain A2; [2]): > 38400 nM
- EC50 (RSV A2; NHBE cells, RSV A2, 4 days): > 10800 nM
- EC50 (HRV16; H1-HeLa cells, 33° C.): > 50000 nM
- EC50 (DENV2 replicon; Huh-7 replicon cells, 48 hours): > 50000 nM

Structure (SMILES): CCC(CC)COC(=O)[C@H](C)OP(=O)(OC[C@@]1(C#N)O[C@@H](c2ccc3c(N)ncnn23)[C@H](O)[C@@H]1O)Oc1ccccc1 (stereo partly drawn) [Example 244, 2-ethylbutyl (2S)-2-(((((2R,3S,4R,5S)-5-(4-aminopyrrolo [2,1-f][1,2,4]triazin-7-yl)-2-cyano-3,4-dihydroxytetrahydrofuran-2-yl)methoxy)(phenoxy)phosphoryl)oxy)propanoate]
- EC50 (RSV strain A2; human respiratory syncytial virus, HEp-2, 96 h): 4950 nM
- EC50 (RSV A2): > 5000 nM
- EC50 (HRV16): 33600 nM
- EC50 (DENV2 replicon): 36700 nM

Structure (SMILES): C[C@H](NP(=O)(OC[C@@]1(C#N)O[C@@H](c2ccc3c(N)ncnn23)[C@H](O)[C@@H]1O)Oc1ccccc1)C(=O)OCC(CO)CO (stereo partly drawn) [Example 245, 3-hydroxy-2-(hydroxymethyl)propyl ((((2R,3S,4R,5S)-5-(4-aminopyrrolo[2,1-f][1,2,4]triazin-7-yl)-2-cyano-3,4-dihydroxytetrahydrofuran-2-yl)methoxy)(phenoxy)phosphoryl)-L-alaninate]
- EC50 (RSV strain A2; [2]): 3790 nM
- EC50 (RSV A2; NHBE cells, RSV A2, 4 days): > 5000 nM
- EC50 (HRV16; H1-HeLa cells, 33° C.): 29000 nM
- EC50 (DENV2 replicon; Huh-7 replicon cells, 48 hours): > 50000 nM

Structure (SMILES): C[C@H](NP(=O)(OC[C@@]1(C#N)O[C@@H](c2ccc3c(N)ncnn23)[C@H](O)[C@@H]1O)Oc1ccccc1)C(=O)OCC1(C)CC1 (stereo partly drawn) [Example 257, (1-methylcyclopropyl)methyl ((((2R,3S,4R,5S)-5-(4-aminopyrrolo[2,1-f][1,2,4]triazin-7-yl)-2-cyano-3,4-dihydroxytetrahydrofuran-2-yl)methoxy)(phenoxy)phosphoryl)-L-alaninate]
- EC50 (RSV strain A2; [2]): 29 nM
- EC50 (DENV2 replicon; Huh-7 replicon cells, 48 hours): 5480 nM
- EC50 [1]: 2210 nM
